The source made the active and inactive calls.
Legend:
[1] = target: Type-1 angiotensin II receptor (Homo sapiens, UniProt P30556); assay: antagonism of angiotensin II type 1 receptor – cell-based, uHTS hits, selectivity assay for APJ receptor antagonist project, dose response (AID 463214); type: functional;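 further: antagonist potency against angiotensin II stimulated AT1 response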
Beta-galactosidase = Beta-galactosidase (Escherichia coli, UniProt Q8VNN2); assay: PubChem AID 485352; type: functional
Sequence of Beta-galactosidase (Q8VNN2 whole entry): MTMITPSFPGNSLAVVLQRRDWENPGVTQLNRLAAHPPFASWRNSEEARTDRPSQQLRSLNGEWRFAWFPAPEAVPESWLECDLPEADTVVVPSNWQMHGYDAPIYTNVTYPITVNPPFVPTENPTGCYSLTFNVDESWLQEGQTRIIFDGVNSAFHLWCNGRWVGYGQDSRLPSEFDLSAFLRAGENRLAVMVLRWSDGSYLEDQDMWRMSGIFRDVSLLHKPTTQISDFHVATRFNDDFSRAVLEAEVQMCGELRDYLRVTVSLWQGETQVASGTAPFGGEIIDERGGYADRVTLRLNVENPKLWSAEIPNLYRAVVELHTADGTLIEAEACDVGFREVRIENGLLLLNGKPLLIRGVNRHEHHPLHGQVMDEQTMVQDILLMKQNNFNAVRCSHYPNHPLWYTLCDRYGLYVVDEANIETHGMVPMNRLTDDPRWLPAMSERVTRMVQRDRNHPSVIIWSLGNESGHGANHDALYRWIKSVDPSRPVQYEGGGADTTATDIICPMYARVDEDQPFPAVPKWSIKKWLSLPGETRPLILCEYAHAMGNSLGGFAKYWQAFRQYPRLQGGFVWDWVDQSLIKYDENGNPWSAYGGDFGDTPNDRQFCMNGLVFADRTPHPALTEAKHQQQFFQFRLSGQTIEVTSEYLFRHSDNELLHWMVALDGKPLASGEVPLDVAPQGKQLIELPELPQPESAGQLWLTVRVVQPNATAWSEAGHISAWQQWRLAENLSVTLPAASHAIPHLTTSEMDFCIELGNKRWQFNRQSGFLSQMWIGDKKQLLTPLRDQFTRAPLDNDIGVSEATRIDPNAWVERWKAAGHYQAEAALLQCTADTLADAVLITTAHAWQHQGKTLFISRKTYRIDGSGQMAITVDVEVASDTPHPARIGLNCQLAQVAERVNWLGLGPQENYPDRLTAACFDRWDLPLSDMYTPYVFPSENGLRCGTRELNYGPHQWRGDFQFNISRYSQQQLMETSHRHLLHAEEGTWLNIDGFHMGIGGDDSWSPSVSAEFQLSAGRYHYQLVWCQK

[2] = HPDE-C7 pancreatic duct cell viability loss – fluorescence, HTS (AID 430); type: functional, cell-based; conditions: Homo sapiens
[3] = viability loss of HPDE-C7K cells – cell-based, fluorescence, HTS, primary screen (AID 431); type: functional; conditions: Homo sapiens
HT-1080 = assay: HT1080 cell viability loss – fluorescence readout (AID 620); type: functional, cell-based; conditions: Homo sapiens
Vero [4] = assay: viability of Vero cells under compound – cytotoxicity control for flavivirus capping enzyme inhibitors (AID 588742); type: functional; conditions: Chlorocebus sabaeus
Vero [5] = assay: mammalian cell viability reduction – secondary assay, cytotoxicity control for West Nile virus antiviral project, dose response (AID 1650); type: functional; conditions: Chlorocebus sabaeus
[6] = target: T1, Replicative DNA helicase DnaB (Mycobacterium tuberculosis, UniProt P9WMR3); assay: DnaB intein splicing inhibitors, dose response, biochemical, cell-free fluorescence (AID 449749); type: functional
T1 sequence (P9WMR3 whole entry): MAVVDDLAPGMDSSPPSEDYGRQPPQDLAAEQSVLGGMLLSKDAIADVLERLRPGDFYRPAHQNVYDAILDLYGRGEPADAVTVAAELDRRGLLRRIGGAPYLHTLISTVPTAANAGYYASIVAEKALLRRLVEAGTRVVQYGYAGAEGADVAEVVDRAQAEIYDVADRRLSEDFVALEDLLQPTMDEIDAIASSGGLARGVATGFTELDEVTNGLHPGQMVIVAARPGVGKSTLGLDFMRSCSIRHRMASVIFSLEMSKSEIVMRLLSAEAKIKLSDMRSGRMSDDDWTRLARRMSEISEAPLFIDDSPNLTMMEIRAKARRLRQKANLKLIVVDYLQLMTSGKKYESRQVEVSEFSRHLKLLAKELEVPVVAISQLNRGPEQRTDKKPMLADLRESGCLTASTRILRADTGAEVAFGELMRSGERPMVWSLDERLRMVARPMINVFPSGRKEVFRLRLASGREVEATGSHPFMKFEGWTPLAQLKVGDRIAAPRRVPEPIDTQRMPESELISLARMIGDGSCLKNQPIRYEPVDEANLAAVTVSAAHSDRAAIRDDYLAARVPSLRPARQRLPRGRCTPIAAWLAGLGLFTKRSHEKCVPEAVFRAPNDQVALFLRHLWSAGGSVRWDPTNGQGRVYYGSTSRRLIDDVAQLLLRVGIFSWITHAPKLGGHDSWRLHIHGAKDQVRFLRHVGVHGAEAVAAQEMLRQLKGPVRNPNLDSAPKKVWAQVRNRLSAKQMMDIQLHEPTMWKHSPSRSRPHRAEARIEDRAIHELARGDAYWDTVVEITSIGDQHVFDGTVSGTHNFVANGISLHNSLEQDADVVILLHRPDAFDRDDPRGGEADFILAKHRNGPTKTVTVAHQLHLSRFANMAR

[7] = Luminescence Cell-Based Dose Retest to Confirm Inhibitors of Cancer Stem Cells. [Related pubchem assays (depositor defined):AID2717, AID2721]; type: functional; conditions: Homo sapiens
Streptokinase A = target: T2, Streptokinase A (Streptococcus pyogenes serotype M1, UniProt P10520); assay: viability-normalized secreted streptokinase activity reduction – plasminogen activation absorbance, OD405, dose response (AID 1914); type: functional, Streptococcus pyogenes M1 GAS;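 further: secreted streptokinase activity via plasminogen activation per viability signal from cell pellet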
T2 sequence (P10520 whole entry): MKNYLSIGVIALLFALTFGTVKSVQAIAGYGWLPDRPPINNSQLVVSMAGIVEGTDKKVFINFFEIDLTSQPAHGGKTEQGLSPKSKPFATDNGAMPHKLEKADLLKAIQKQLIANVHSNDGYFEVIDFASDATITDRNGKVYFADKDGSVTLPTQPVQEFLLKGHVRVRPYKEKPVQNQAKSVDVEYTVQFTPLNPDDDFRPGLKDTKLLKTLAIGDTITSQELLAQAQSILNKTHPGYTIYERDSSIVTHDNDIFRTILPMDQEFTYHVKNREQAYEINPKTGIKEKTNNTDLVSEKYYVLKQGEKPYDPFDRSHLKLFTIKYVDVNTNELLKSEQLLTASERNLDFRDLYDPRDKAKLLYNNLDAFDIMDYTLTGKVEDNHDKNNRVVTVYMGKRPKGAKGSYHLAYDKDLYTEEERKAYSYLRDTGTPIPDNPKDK

[8] = system: Streptococcus sp. 'group A'; assay: Streptococcus pyogenes SK(-)GAS viability under kanamycin – luminescence, BacTiterGlo, confirmation, counter-screen for streptokinase expression inhibitor project, dose response (AID 1900); type: functional, organism-based
[9] = non-specific 3'UTR reporter inhibition in Clone20-Shn3RL – cell-based, Renilla luciferase, cherry-picked, counter-screen for Shn3 inhibitor project, dose response (AID 624133); type: functional
[10] = loss of viability in HepG2 cells – cell-based, CellTiter-Glo, cherry-picked, cytotoxicity control for Shn3 inhibitor project, dose response (AID 624134); type: functional
[11] = target: ATP-binding cassette sub-family B member 6 (Homo sapiens, UniProt Q9NP58); assay: ABCB6 transporter inhibitors, porphyrin accumulation, dose response, flow cytometry, K562-ABCB6 cells, cherry pick 02 (AID 624487); type: functional; conditions: read-out: EC50_MICROM
Sequence of ATP-binding cassette sub-family B member 6 (Q9NP58 whole entry): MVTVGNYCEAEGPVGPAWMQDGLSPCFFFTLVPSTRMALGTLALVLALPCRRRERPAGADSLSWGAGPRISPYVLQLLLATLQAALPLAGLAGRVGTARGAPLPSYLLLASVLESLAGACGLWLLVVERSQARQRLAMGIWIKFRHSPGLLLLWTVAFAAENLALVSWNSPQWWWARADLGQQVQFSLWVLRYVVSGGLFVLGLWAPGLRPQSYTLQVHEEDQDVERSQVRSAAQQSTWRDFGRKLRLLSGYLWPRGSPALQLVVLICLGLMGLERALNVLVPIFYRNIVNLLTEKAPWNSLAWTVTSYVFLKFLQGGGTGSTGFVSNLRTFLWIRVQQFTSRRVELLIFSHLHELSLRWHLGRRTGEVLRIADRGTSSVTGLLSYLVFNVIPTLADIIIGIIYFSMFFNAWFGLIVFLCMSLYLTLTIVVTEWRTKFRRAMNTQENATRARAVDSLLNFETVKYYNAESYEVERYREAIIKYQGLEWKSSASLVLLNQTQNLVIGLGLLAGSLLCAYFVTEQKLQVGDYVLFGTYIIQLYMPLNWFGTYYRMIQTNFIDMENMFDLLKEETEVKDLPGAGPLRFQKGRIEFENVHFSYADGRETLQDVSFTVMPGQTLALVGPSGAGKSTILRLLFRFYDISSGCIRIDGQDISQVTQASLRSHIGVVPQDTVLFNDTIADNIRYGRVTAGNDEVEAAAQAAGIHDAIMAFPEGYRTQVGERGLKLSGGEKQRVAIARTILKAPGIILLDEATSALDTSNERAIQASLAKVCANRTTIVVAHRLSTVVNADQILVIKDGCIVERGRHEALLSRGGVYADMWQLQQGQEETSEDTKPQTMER

Protein RecA = target: T3, Protein RecA (Mycobacterium tuberculosis, UniProt P9WHJ3); assay: Fluorescence Cell-Free Homogeneous Dose Retest to Identify Inhibitors of RecA-Intein Splicing Activity. [Related pubchem assays (depositor defined):AID2097, AID2223, AID489010, AID492950]; type: functional
T3 sequence (P9WHJ3 whole entry): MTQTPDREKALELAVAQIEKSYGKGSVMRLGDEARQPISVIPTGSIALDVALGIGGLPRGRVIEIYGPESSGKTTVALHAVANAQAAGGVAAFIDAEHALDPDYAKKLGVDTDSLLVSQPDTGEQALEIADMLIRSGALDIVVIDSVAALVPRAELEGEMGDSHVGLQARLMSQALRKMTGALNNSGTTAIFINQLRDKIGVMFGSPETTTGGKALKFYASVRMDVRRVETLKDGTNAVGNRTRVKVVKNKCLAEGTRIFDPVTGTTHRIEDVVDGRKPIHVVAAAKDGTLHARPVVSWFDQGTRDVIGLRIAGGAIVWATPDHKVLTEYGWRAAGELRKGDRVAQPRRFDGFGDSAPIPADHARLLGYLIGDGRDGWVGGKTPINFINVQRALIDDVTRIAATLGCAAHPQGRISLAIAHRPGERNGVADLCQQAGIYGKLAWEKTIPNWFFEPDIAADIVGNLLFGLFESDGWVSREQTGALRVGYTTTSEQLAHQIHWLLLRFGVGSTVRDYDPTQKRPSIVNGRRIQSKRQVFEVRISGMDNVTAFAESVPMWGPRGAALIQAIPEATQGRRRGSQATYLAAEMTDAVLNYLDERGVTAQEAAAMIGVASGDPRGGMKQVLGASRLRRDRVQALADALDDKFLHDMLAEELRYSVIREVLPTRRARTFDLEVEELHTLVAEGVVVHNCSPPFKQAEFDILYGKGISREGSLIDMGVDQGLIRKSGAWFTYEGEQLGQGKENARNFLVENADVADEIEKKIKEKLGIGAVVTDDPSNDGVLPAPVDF

CHO = CHO cell viability loss, potency – luminescence, cytotoxicity control for TLR9-MyD88 binding inhibitor project, dose response (AID 588339); type: functional, cell-based, hamster; conditions: Cricetulus griseus;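 further: CHO cells stably coexpressing TLR9 and MyD88 fusions from primary screen; compound exposure lasted 48 hours before viability readout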
[12] = reduction of Shn3 3'UTR-driven luciferase in osteoblasts – cell-based, Clone20 osteoblasts, firefly luciferase, cherry-picked, dose response (AID 624132); type: functional;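 further: firefly luciferase luminescence from reporter carrying the Shn3 3'UTR in osteoblasts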
Streptococcus = assay: GAS UMAA2166 growth inhibition – luminescence, BacTiterGlo, counter-screen for streptokinase expression inhibitor project, dose response (AID 1915); type: functional, organism-based;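 further: potency for reduction of bacterial viability or growth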
Hexokinase-1 = target: T4, Hexokinase-1 (Homo sapiens, UniProt P19367); assay: hexokinase 1 activity inhibitors, potency – biochemical, set 2, resazurin fluorescence coupled readout, selectivity assay for HKDC1 inhibitor project, SAR follow-up (AID 588356); type: functional
T4 sequence (P19367 whole entry): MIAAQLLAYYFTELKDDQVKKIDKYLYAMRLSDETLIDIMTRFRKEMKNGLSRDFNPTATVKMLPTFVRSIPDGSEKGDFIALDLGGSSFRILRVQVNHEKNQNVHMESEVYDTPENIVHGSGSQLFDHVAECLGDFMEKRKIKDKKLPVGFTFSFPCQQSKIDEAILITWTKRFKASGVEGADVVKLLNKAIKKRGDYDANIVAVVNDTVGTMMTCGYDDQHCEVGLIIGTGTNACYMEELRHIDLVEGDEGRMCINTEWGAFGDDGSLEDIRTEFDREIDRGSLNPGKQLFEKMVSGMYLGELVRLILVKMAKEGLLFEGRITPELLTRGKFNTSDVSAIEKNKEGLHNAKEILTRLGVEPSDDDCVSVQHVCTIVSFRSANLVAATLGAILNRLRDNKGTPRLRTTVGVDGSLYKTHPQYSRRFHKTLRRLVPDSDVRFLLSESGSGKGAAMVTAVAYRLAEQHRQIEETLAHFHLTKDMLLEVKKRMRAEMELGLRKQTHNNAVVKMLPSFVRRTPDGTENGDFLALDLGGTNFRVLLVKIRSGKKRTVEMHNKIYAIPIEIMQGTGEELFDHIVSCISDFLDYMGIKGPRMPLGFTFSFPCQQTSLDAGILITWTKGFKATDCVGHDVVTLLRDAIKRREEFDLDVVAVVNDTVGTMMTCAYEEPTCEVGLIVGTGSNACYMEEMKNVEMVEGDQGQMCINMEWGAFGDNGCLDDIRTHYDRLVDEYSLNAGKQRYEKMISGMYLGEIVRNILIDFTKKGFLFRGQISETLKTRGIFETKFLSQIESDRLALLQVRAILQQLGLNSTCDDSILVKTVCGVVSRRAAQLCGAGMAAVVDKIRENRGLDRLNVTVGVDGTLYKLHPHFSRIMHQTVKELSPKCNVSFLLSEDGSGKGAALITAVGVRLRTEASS

Hexokinase HKDC1 = target: T5, Hexokinase HKDC1 (Homo sapiens, UniProt Q2TB90); assay: analog inhibition of human HKDC1 activity – biochemical, set 2, SAR follow-up (AID 588355); type: functional
T5 sequence (Q2TB90 whole entry): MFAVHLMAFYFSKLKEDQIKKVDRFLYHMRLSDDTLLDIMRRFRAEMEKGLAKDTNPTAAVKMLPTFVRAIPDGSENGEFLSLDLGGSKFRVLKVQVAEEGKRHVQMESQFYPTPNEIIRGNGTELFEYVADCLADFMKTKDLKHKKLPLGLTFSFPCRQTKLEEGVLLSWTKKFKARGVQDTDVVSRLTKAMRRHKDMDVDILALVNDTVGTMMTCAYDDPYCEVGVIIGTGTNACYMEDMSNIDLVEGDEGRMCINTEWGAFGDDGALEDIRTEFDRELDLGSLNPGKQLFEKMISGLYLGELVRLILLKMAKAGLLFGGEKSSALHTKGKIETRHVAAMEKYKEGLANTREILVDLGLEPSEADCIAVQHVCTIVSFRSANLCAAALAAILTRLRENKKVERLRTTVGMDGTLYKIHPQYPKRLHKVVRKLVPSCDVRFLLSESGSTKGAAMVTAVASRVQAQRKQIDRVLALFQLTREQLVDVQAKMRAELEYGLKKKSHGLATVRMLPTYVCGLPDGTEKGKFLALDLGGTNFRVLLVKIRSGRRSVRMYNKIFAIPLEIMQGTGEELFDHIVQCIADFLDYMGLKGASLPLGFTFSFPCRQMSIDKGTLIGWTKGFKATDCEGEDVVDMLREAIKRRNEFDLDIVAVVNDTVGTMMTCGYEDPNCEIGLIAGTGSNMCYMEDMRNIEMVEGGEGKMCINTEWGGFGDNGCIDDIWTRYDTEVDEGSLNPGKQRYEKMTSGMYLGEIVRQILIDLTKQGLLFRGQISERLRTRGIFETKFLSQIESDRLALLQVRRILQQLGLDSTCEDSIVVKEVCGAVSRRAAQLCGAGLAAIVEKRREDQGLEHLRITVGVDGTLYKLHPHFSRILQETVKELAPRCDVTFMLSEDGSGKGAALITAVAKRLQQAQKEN

Sequence of Type-1 angiotensin II receptor (P30556 whole entry): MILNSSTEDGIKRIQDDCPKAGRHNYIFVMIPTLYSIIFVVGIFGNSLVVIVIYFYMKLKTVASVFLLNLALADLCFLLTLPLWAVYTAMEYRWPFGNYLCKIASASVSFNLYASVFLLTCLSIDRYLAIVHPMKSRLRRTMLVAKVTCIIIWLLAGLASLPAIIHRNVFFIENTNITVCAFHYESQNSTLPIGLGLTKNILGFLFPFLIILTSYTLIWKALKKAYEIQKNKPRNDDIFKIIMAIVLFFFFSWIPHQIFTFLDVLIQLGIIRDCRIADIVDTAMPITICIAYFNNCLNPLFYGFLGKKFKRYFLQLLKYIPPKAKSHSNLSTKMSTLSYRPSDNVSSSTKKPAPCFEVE

O=C(O)c1cccc(NC(=S)NC(=O)c2cncc(Br)c2)c1
IC50 [1]: > 40 µM (not active) | EC50 (Beta-galactosidase): > 40 µM (inactive)

O=C(NCc1cccs1)c1nc(O)c2nnn(Cc3ccccc3Cl)c2n1
EC50 [2]: > 20 µM (not active) | EC50 [3]: > 20 µM (not active) | EC50 (HT-1080): > 50 µM (not active) | CC50 (Vero [4]): 7 µM (active) | CC50 (Vero [5]): 14.6 µM (active)

Cc1ccc(NC(=O)c2nc(S(=O)(=O)Cc3ccccc3C)ncc2Cl)cc1C
AC50 [6]: > 380 µM (inconclusive) | AC50 [7]: 2.01 µM (active) | EC50 (Streptokinase A): 1.32 µM (active) | EC50 [8]: 9.97 µM (active) | AC50 [9]: 8.07 µM (active) | AC50 [10]: 30.8 µM (active) | EC50 [11]: 20.5 µM (active) | EC50 (Protein RecA): 1.31 µM (active) | IC50 (CHO): 5.02 µM (active) | AC50 [12]: 0.486 µM (active) | EC50 (Streptococcus): 22.2 µM (inconclusive)

COc1cccc(N2CC(C)Cn3c2nc2c3c(=O)n(CCN3CCOCC3)c(=O)n2C)c1 (centres undefined)
IC50 [1]: > 40 µM (not active) | EC50 (Beta-galactosidase): > 40 µM (inactive)

COc1cc2c(cc1OC)-c1cc(Nc3cccc4ccccc34)nc(=O)n1CC2
IC50 (Hexokinase-1): > 80 µM (inactive) | IC50 (Hexokinase HKDC1): > 80 µM (inactive)

O=c1c2ccc(F)cc2nc(/C=C/c2cccnc2)n1Cc1ccccc1
IC50 (Hexokinase-1): > 80 µM (inactive) | IC50 (Hexokinase HKDC1): > 80 µM (inactive)

Reference: ChEMBL document CHEMBL1201862, “PubChem BioAssay data set” (2004)
